Results: US20070116781A1, “Hydrogen Cyanamide Pesticide Formulations” (priority 2005, published 2007)

Key:
morningglory = assay: Herbicidal activity, phosphate-free cyanamide and propionic acid, post-emergence, uncovered pots; assay type: in vivo, Ipomoea spp.
Text: (§1) The procedures in this example differed from those of Example 2, however, by the use of hydrogen cyanamide crystals free of phosphate ion to prepare the aqueous hydrogen cyanamide solution, by the use of post-emergence application, and by the omission of any covering of the pots during any part of the test. Observations were made for total weed growth, and individual observations were also made for yellow nutsedge, crabgrass, sicklepod, and momingglory. Stock solutions of hydrogen cyanamide at 1.25% by weight and propionic acid at 5.0% by weight, both in water, were prepared as before, except that the hydrogen cyanamide solution, as noted above, was prepared by dissolving hydrogen cyanamide crystals in water in the absence of phosphate ion. […] The weeds were allowed to grow for three weeks before the treatment chemicals were applied. […] Data analyses were performed in the same manner as Examples 1 and 2. Table IX lists the results in weeds per pot for all weeds, Table X for yellow nutsedge, Table XI for crabgrass, Table XII for sicklepod, and Table XIII for morningglory, all both with propionic acid alone at various application rates and with […]

crabgrass = assay: as above; assay type: in vivo, Digitaria sanguinalis
Text: as §1, with “application” for “application rates and with”

spiral nematodes = assay: Nematicidal activity in covered pots of naturally infested silt loam, soybean planted after 12 days; assay type: in vivo, Helicotylenchus dihystera; settings: C2H5CO2H 250 mg/kg soil
Description: (§2) In this study, the soil was naturally infested with four species of nematodes, two of which were deleterious and two beneficial, and observations were made of both the nematode survival and the growth of the soybean plants.
(§3) Stock solutions of hydrogen cyanamide at 1.0% by weight and propionic acid at 5.0% by weight, both in water, were prepared, the hydrogen cyanamide from a phosphate-buffered 50% aqueous solution. Planting pots measuring 10 cm in diameter, each containing 1 kg of soil, were used. The soil was silt loam from a cotton field, pH 6.2, CEC<10 meq/100 g soil, organic matter<1.0%. The treatment chemicals were combined in various dilutions such that 100 mL of the combined dilutions contained the desired amount of each chemical for each test. The combined dilutions were then applied to the soil surface in each pot, at 100 mL of combined dilution per pot. The dilutions were selected to achieve target application rates expressed in milligrams of the treatment chemical per kilogram of soil, with 1 milligram of treatment chemical per kilogram of soil being approximately equal to 2 kilograms of the chemical per hectare of soil or 2 pounds of the chemical per acre of soil.
(§4) Immediately after the treatment chemicals were applied, each pot was covered by a thick (1.5 mil), clear, low-density polyethylene bag. After twelve days, the bags were removed and soil samples were taken from each pot for nematological analysis by the salad bowl technique of Rodriguez-Kabana, R., and M. H. Pope, Nematropica, 11: 175-186 (1981). The results of these analyses are listed in Table I as pre-plant test results. The results for the two deleterious nematodes are also shown as plots of the number of nematodes vs. the hydrogen cyanamide application rate in FIGS. 1 and 2.
(§5) After the polyethylene bags were removed, each pot was planted with Hutcheson soybean seeds at 5 seeds per pot, and the seeds were allowed to germinate and the plants to grow for 45 days. The resulting plants were then removed from the pots, the root systems were washed, and the number of plants in each pot was determined. The weights of both fresh shoots and roots were also determined as well as the shoot height and the relative health of the root system, using a subjective index. Soil samples were also collected, and the soil and roots were incubated to determine nematode populations. Treatments were arranged in randomized complete block design with seven replications per treatment, and statistical evaluation of the data was performed with analyses of variance (ANOVA) and standard regression procedures. Fischer's Least Significant Difference at p 0.05 was calculated when appropriate. The results of these tests are listed as final test results in Tables II, III, and IV, with nematode populations in the soil listed in Table II, the nematode populations in the root systems in Table III, and the plant and root parameters of the soybean shoots in Table IV.

reniform nematodes = assay: as above; assay type: in vivo, Rotylenchulus reniformus; settings: C2H5CO2H 250 mg/kg soil
Description: as §2, §3, §4, §5

all weeds = assay: Herbicidal activity, phosphate-free cyanamide and propionic acid, post-emergence, uncovered pots; assay type: in vivo
Text: as §1, with “application” for “application rates and with”

microbivorous nematodes = assay: Effect on beneficial nematodes in covered pots of silt loam; assay type: in vivo; settings: microbivorous nematodes, in vivo, pH 6.2
Description: as §2, §3, §4, §5

[1] = 6 d after treatment, C2H5CO2H 100 mg/kg soil
[2] = 6 d after treatment, C2H5CO2H 200 mg/kg soil
[3] = 6 d after treatment, C2H5CO2H 300 mg/kg soil
[4] = 6 d after treatment, C2H5CO2H 400 mg/kg soil
[5] = 6 d after treatment, C2H5CO2H 500 mg/kg soil
[6] = 13 d after treatment, C2H5CO2H 100 mg/kg soil
[7] = 13 d after treatment, C2H5CO2H 200 mg/kg soil
[8] = 13 d after treatment, C2H5CO2H 300 mg/kg soil
[9] = 13 d after treatment, C2H5CO2H 400 mg/kg soil
[10] = 13 d after treatment, C2H5CO2H 500 mg/kg soil
[11] = 20 d after treatment, C2H5CO2H 100 mg/kg soil
[12] = 20 d after treatment, C2H5CO2H 200 mg/kg soil
[13] = 20 d after treatment, C2H5CO2H 300 mg/kg soil
[14] = 20 d after treatment, C2H5CO2H 400 mg/kg soil
[15] = 20 d after treatment, C2H5CO2H 500 mg/kg soil
[16] = 12 d after treatment, pre-plant
[17] = 57 d after treatment, 45 d after planting

SMILES: CCC(=O)O [C2H5CO2H, propionic acid]
- Weeds Per Pot: Morningglory (morningglory; [1]): 7
- Weeds Per Pot: Morningglory (morningglory; [2]): 2.1
- Weeds Per Pot: Morningglory (morningglory; [3]): 0
- Weeds Per Pot: Morningglory (morningglory; [4]): 0
- Weeds Per Pot: Morningglory (morningglory; [5]): 0
- Weeds Per Pot: Morningglory (morningglory; [6]): 7.3
- Weeds Per Pot: Morningglory (morningglory; [7]): 2.1
- Weeds Per Pot: Morningglory (morningglory; [8]): 0
- Weeds Per Pot: Morningglory (morningglory; [9]): 0
- Weeds Per Pot: Morningglory (morningglory; [10]): 0
- Weeds Per Pot: Morningglory (morningglory; [11]): 7.3
- Weeds Per Pot: Morningglory (morningglory; [12]): 2.1
- Weeds Per Pot: Morningglory (morningglory; [13]): 0
- Weeds Per Pot: Morningglory (morningglory; [14]): 0
- Weeds Per Pot: Morningglory (morningglory; [15]): 0
- Weeds Per Pot: Crabgrass (crabgrass; [1]): 9.9
- Weeds Per Pot: Crabgrass (crabgrass; [2]): 5.1
- Weeds Per Pot: Crabgrass (crabgrass; [3]): 3
- Weeds Per Pot: Crabgrass (crabgrass; [4]): 0.6
- Weeds Per Pot: Crabgrass (crabgrass; [5]): 0.6
- Weeds Per Pot: Crabgrass (crabgrass; [6]): 10.6
- Weeds Per Pot: Crabgrass (crabgrass; [7]): 5.4
- Weeds Per Pot: Crabgrass (crabgrass; [8]): 3.9
- Weeds Per Pot: Crabgrass (crabgrass; [9]): 1.3
- Weeds Per Pot: Crabgrass (crabgrass; [10]): 0.7
- Weeds Per Pot: Crabgrass (crabgrass; [11]): 11.6
- Weeds Per Pot: Crabgrass (crabgrass; [12]): 6
- Weeds Per Pot: Crabgrass (crabgrass; [13]): 3.4
- Weeds Per Pot: Crabgrass (crabgrass; [14]): 1.3
- Weeds Per Pot: Crabgrass (crabgrass; [15]): 1.6
- Surviving Nematodes: Spiral (spiral nematodes; [16]): 47 per 100 mL of soil
- Surviving Nematodes: Spiral (spiral nematodes; [17]): 12.4 per 100 mL of soil
- Surviving Nematodes in Root System: Spiral (spiral nematodes; 57 d after treatment): 25.9 Per Pot
- Surviving Nematodes: Reniform (reniform nematodes; [16]): 280 per 100 mL of soil
- Surviving Nematodes: Reniform (reniform nematodes; [17]): 328 per 100 mL of soil
- Surviving Nematodes in Root System: Reniform (reniform nematodes; 57 d after treatment): 64.7 Per Pot
- Weeds Per Pot: All Weeds (all weeds; [1]): 22.4
- Weeds Per Pot: All Weeds (all weeds; [2]): 12.6
- Weeds Per Pot: All Weeds (all weeds; [3]): 5.7
- Weeds Per Pot: All Weeds (all weeds; [4]): 4
- Weeds Per Pot: All Weeds (all weeds; [5]): 3.4
- Weeds Per Pot: All Weeds (all weeds; [6]): 24.4
- Weeds Per Pot: All Weeds (all weeds; [7]): 14.9
- Weeds Per Pot: All Weeds (all weeds; [8]): 8.6
- Weeds Per Pot: All Weeds (all weeds; [9]): 7.6
- Weeds Per Pot: All Weeds (all weeds; [10]): 6.7
- Weeds Per Pot: All Weeds (all weeds; [11]): 25.1
- Weeds Per Pot: All Weeds (all weeds; [12]): 15.9
- Weeds Per Pot: All Weeds (all weeds; [13]): 10
- Weeds Per Pot: All Weeds (all weeds; [14]): 8.4
- Weeds Per Pot: All Weeds (all weeds; [15]): 8
- Herbicidal activity of propionic acid alone (all weeds; post-emergence, uncovered pots): demonstrated herbicidal activity on its own
- Surviving Nematodes: Microbivorous (microbivorous nematodes; 12 d): 66 per 100 mL of soil
- Surviving Nematodes in Root System: Microbivorous (microbivorous nematodes; 57 d): 96 Per Pot
- Surviving Nematodes: Microbivorous (microbivorous nematodes; 57 d): 45 per 100 mL of soil
